According to the NIST ThermoML archive (doi:10.1016/j.tca.2006.01.020):

Test: molar heat capacity at constant pressure
Settings: 101.33 kPa, Crystal, Small (less than 1 g) adiabatic calorimetry

[Ba+2].[Ce+4].[O-2].[O-2].[O-2] [barium cerium(IV) oxide]
Settings | molar heat capacity at constant pressure [J/K/mol]
45.36 K | 25.5
46.27 K | 26.2
47.24 K | 26.9
48.19 K | 27.7
49.16 K | 28.5
50 K | 29.66
50.15 K | 29.4
51.15 K | 30.2
52.16 K | 31
53.16 K | 31.8
54.16 K | 32.6
55.16 K | 33.5
56.16 K | 34.3
57.16 K | 35.1
58.15 K | 35.9
59.14 K | 36.7
60 K | 37.42
60.13 K | 37.4
61.12 K | 38.2
62.11 K | 39
63.1 K | 39.7
64.09 K | 40.5
65.08 K | 41.3
66.07 K | 42
67.07 K | 42.8
68.06 K | 43.6
69.05 K | 44.3
70 K | 44.66
70.05 K | 45
71.04 K | 45.8
72.03 K | 46.6
73.03 K | 47.3
74.02 K | 47.8
75.02 K | 48.6
76.02 K | 49.2
77.02 K | 49.9
78.02 K | 50.6
79.01 K | 50.7
80 K | 51.2
80.01 K | 51.5
80.29 K | 51
81.69 K | 51.5
82.49 K | 52
83.31 K | 52.5
84.14 K | 53.1
84.98 K | 53.7
85.82 K | 54.2
86.68 K | 54.7
87.55 K | 55.3
88.43 K | 55.8
89.31 K | 56.3
90 K | 57.18
90.21 K | 56.9
91.11 K | 57.4
92.02 K | 58
92.94 K | 58.5
93.87 K | 59.1
94.81 K | 59.7
95.75 K | 60.2
96.71 K | 60.8
97.68 K | 61.3
98.65 K | 61.9
99.64 K | 62.4
100 K | 62.7
100.64 K | 63
101.64 K | 63.6
102.66 K | 64.1
103.69 K | 64.7
104.72 K | 65.2
105.77 K | 65.8
106.83 K | 66.4
107.9 K | 66.9
108.97 K | 67.4
110.06 K | 67.7
111.16 K | 68.5
112.27 K | 69.1
113.4 K | 69.7
114.53 K | 70.2
115.68 K | 70.8
116.83 K | 71.4
118 K | 71.9
119.18 K | 72.4
120 K | 72.61
120.37 K | 73
121.58 K | 73.5
122.79 K | 74
124.02 K | 74.6
125.26 K | 75.1
126.51 K | 75.7
127.77 K | 76.2
129.05 K | 76.8
130.34 K | 77.3
131.64 K | 77.9
132.96 K | 78.4
134.29 K | 78.9
135.63 K | 79.4
136.99 K | 79.9
138.36 K | 80.4
139.74 K | 80.9
140 K | 81.2
141.54 K | 81.6
142.95 K | 82.2
144.38 K | 82.8
145.83 K | 83.2
147.28 K | 83.8
148.76 K | 84.5
150.25 K | 85
151.75 K | 85.6
153.27 K | 86.1
154.8 K | 86.6
156.34 K | 87.3
157.91 K | 87.8
159.49 K | 88.2
160 K | 88.53
161.08 K | 88.9
162.69 K | 89.3
164.32 K | 89.9
165.96 K | 90.3
167.62 K | 90.8
169.3 K | 91.2
170.99 K | 91.8
172.7 K | 92.4
174.43 K | 92.9
176.17 K | 93.5
177.93 K | 94
179.71 K | 94.3
180 K | 94.63
181.5 K | 95.2
183.31 K | 95.3
185.15 K | 95.9
187 K | 96.4
188.86 K | 97.1
190.75 K | 97.8
192.65 K | 98
194.58 K | 98.2
196.52 K | 98.2
198.48 K | 98.6
200 K | 99.59
200.46 K | 99.2
202.45 K | 99.5
204.43 K | 100
206.42 K | 101
208.4 K | 101.1
210.39 K | 101.6
212.37 K | 101.7
214.35 K | 102.5
216.33 K | 102.8
218.31 K | 103.5
220 K | 103.6
220.3 K | 103.8
222.28 K | 103.6
224.26 K | 104.2
226.23 K | 105.1
228.22 K | 105
230.2 K | 105.5
232.17 K | 106.2
234.15 K | 106.2
236.14 K | 106.1
238.1 K | 106.8
240 K | 106.9
240.08 K | 106.6
242.05 K | 107.3
244.02 K | 107.1
245.99 K | 107.7
249.95 K | 108.3
251.89 K | 108.9
253.89 K | 109.5
255.86 K | 109.5
257.84 K | 109.2
259.8 K | 110.2
260 K | 109.9
261.77 K | 109.7
263.74 K | 110.1
267.67 K | 111
269.63 K | 110.4
271.61 K | 110.6
273.57 K | 111.4
275.53 K | 111.7
277.5 K | 111.9
279.46 K | 112.8
280 K | 112.6
281.42 K | 112.8
283.39 K | 112
285.35 K | 114
287.3 K | 114.2
289.27 K | 113.1
291.22 K | 113.8
293.17 K | 114.3
294.05 K | 113.5
297.48 K | 114.1
298.15 K | 114.8
299.16 K | 114.5
300 K | 114.9
